Results: patent US9187428B2, “Substituted dicyanopyridines and use thereof” (Bayer Intellectual Property GmbH, priority 2010, dated 2015)
Converted amounts (≈) assume the structure as drawn. Where two headings read alike, the source gives them in different places.

Key:
[1] = Determination of the solubility; type: physicochemical; settings: kinetic from dmso stock
Description: B-8. Determination of the Solubility
• PBS buffer pH 6.5: 90.00 g of NaCl p.a. (for example from Merck, Art. No. 1.06404.1000), 13.61 g of KH2PO4 p.a. (for example from Merck, Art. No. 1.04873.1000) and 83.35 g of 1 N aqueous sodium hydroxide solution (for example from Bernd Kraft GmbH, Art. No. 01030.4000) are weighed into a 1 liter measuring flask, the flask is filled with distilled water to 1 liter and the mixture is stirred for 1 hour. Using 1 N hydrochloric acid (for example from Merck, Art. No. 1.09057.1000) the pH is then adjusted to 6.5. • PEG/water solution (30:70 v/v): 30 ml of polyethylene glycol 400 (for example from Merck, Art. No. 8.17003.1000) and 70 ml of distilled water are homogenized in a 100 ml measuring flask. • PEG/PBS buffer pH 6.5 (80:20 v/v): 80 ml of polyethylene glycol 400 (for example from Merck, Art. No. 8.17003.1000) and 20 ml of PBS buffer pH 6.5 are homogenized in a 100 ml measuring flask. • Dimethyl sulfoxide (for example from Baker, Art. No. 7157.2500) • Distilled water. Preparation of the Starting Solution (Original Solution):
At least 4 mg of the test substance are weighed accurately into a wide-necked 10 mm screw V vial (from Glastechnik Gräfenroda GmbH, Art. No. 8004-WM-H/V15μ) with fitting screw cap and septum, in a pipetting robot DMSO is added to a concentration of 50 mg/ml and the mixture is shaken for 10 minutes.
Preparation of the Calibration Solutions:
Preparation of the Starting Solution for Calibration Solutions (Stock Solution):
With the aid of a pipetting robot, 10 μl of the original solution are transferred into a microtiter plate and made up with DMSO to a concentration of 600 μg/ml. The sample is shaken until everything has gone into solution.
Calibration Solution 1 (20 μg/ml):
1000 μl of DMSO are added to 34.4 μl of the stock solution, and the mixture is homogenized.
Calibration Solution 2 (2.5 μg/ml):
700 μl of DMSO are added to 100 μl of calibration solution 1, and the mixture is homogenized.
Preparation of the Sample Solutions:
Sample Solution for Solubilities of Up to 5 g/liter in PBS Buffer pH 6.5:
10 μl of the original solution are transferred into a microtiter plate, and 1000 μl of PBS buffer pH 6.5 are added.
Sample Solution for Solubilities of Up to 5 g/liter in PEG/Water (30:70):
10 μl of the original solution are transferred into a microtiter plate, and 1000 μl of PEG/water (30:70) are added.
Sample Solution for Solubilities of Up to 5 g/liter in PEG/PBS Buffer pH 6.5 (80:20):
10 μl of the original solution are transferred into a microtiter plate, and 1000 μl of PEG/PBS buffer pH 6.5 (80:20) are added.
The sample solutions prepared in this manner are shaken at 1400 rpm in a temperature-adjustable shaker (for example Eppendorf Thermomixer comfort Art. No. 5355 000.011 with interchangeable block Art. No. 5362.000.019) at 20° C. for 24 hours. In each case 180 μl are taken from these solutions and transferred into Beckman Polyallomer Centrifuge Tubes (Art. No. 343621). These solutions are centrifuged at about 223 000×g for one hour (for example Beckman Optima L-90K Ultracentrifuge with Type 42.2 Ti Rotor at 42 000 rpm). From each of the sample solutions, 100 μl of the supernatant are removed and diluted 1:5 and 1:100 with DMSO. From each dilution, a sample is transferred into a vessel suitable for HPLC analysis.
The samples are analyzed by RP-HPLC. Quantification is carried out using a two-point calibration curve of the test compound in DMSO. The solubility is expressed in mg/liter. Analysis sequence: 1) calibration solution […]; 2) calibration solution […]; 3) sample solution 1:5; 4) sample solution 1:100. […]

A1 receptor = A1 receptor (Rattus norvegicus (Rat), UniProt P25099); experiment: A1 receptor GTP shift binding assay with rat brain membranes and [3H]DPCPX; settings: rat brain membranes, 0.4 nM [3H]DPCPX, presence and absence of 1 mM GTP
Sequence of A1 receptor (P25099 whole entry): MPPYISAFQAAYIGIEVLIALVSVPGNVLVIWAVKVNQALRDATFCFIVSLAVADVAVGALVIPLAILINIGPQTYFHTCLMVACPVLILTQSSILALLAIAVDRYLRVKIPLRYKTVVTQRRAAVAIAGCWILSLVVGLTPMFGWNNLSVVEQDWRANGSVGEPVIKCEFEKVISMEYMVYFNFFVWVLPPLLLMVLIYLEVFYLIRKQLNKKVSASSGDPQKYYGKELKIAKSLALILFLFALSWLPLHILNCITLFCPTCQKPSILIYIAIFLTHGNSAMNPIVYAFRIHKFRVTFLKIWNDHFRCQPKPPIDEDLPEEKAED
Description: B-6. GTP Shift Experiment
Preparation of the Brain Membrane
The brains of male Wistar rats are removed and immediately transferred into an ice-cooled 0.32 mol/l sucrose solution. The tissue is comminuted using a glass-Teflon homogenizer and then centrifuged (1000×g for 10 minutes). The supernatant is then ultracentrifuged at 30 000 g for 30 minutes. The pellet obtained in this manner is resuspended in 10 ml of water and allowed to stand on ice for 30 minutes. After a final centrifugation step at 48 000 g for 10 min, the membranes are resuspended in 50 mmol/l Tris-HCl buffer, pH 7.4, and incubated with 2 U/ml of adenosine deaminase at 37° C. for 30 min. This is followed by a protein determination according to Bradford. The membranes are frozen in small aliquots and stored at −80° C. until required for the binding assay.
The A1 receptor GTP shift binding assay is carried out using rat brain membranes and 0.4 nM [^3H] […] 10 μg of membrane protein are incubated at 37° C. for 20 min with 0.4 nM [^3H]DPCPX and adenosine A1 agonists in various concentrations in buffer (50 mM tris-HCl, pH 7.4, 2 U/ml ADA) in the presence and absence of 1 mM guanosine triphosphate (GTP). […] The radioactivity on the filter is measured with addition of 100 μl of scintillation cocktail in a Microbeta TriLux beta counter (PerkinElmer, Massachusetts, USA). […]

adenosine A2a receptor = adenosine A2a receptor (Homo sapiens (Human), UniProt P29274); experiment: Indirect determination of adenosine agonism by gene expression (luciferase reporter), A2a cells; type: cell-based; settings: CHO cells stably transfected with adenosine A2a receptor, 50% of maximum stimulation
Sequence of adenosine A2a receptor (P29274 whole entry): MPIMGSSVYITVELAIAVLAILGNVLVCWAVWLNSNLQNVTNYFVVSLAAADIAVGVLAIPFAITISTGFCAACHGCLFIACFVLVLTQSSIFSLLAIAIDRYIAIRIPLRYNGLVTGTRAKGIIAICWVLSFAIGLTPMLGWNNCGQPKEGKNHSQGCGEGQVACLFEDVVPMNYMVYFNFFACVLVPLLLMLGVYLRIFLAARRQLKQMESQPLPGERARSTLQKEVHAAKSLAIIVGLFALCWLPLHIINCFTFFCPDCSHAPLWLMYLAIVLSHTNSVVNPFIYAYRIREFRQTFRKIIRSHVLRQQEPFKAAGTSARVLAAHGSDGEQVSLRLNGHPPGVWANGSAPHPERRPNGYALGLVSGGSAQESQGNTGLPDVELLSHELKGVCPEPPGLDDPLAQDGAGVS
From the text: (§1) B-1. Indirect Determination of the Adenosine Agonism by Way of Gene Expression
(§2) Cells of the CHO (Chinese Hamster Ovary) permanent line are transfected stably with the cDNA for the adenosine receptor subtypes A1, A2a and A2b. The adenosine A1 receptors are coupled to the adenylate cyclase by way of Gi proteins, while the adenosine A2a and A2b receptors are coupled by way of Gs proteins. In correspondence with this, the formation of cAMP in the cell is inhibited or stimulated, respectively. After that, expression of the luciferase is modulated by way of a cAMP-dependent promoter. The luciferase test is optimized, with the aim of high sensitivity and reproducibility, low variance and good suitability for implementation on a robot system, by varying several test parameters, such as cell density, duration of the growth phase and the test incubation, forskolin concentration and medium composition. The following test protocol is used for pharmacologically characterizing cells and for the robot-assisted substance screening:
(§3) The stock cultures are grown, at 37° C. and under 5% CO2, in DMEM/F12 medium containing 10% FCS (fetal calf serum) and in each case split 1:10 after 2-3 days. Test cultures are seeded in 384-well plates with 2000 cells per well and grown at 37° C. for approx. 48 hours. The medium is then replaced with a physiological sodium chloride solution (130 mM sodium chloride, 5 mM potassium chloride, 2 mM calcium chloride, 20 mM HEPES, 1 mM magnesium chloride hexahydrate, 5 mM sodium bicarbonate, pH 7.4). The substances to be tested, which are dissolved in DMSO, are pipetted into the test cultures (maximum final concentration of DMSO in the test mixture: 0.5%) in a dilution series of from 5×10^−11 M to 3×10^−6 M (final concentration). 10 minutes later, forskolin is added to the A1 cells and all the cultures are subsequently incubated at 37° C. for four hours. After that, 35 μl of a solution which is composed of 50% lysis reagent (30 mM disodium hydrogenphosphate, 10% glycerol, 3% TritonX100, 25 mM TrisHCl, 2 mM dithiotreitol (DTT), pH 7.8) and 50% luciferase substrate solution (2.5 mM ATP, 0.5 mM luciferin, 0.1 mM coenzyme A, 10 mM tricine, 1.35 mM magnesium sulfate, 15 mM DTT, pH 7.8) are added to the test cultures, which are shaken for approx. 1 minute and the luciferase activity is measured using a camera system. The EC50 values are determined, i.e., the concentrations at which 50% of the luciferase response is inhibited in the case of the A1 cell, and, respectively, 50% of the maximum stimulation with the corresponding substance is achieved in the case of the A2b and A2a cells. […] Pharmacol., 357, 1-9 (1998)].
(§4) Table A below lists the EC50 values of representative working examples for the receptor stimulation on adenosine A1, A2a and A2b receptor subtypes: […]

adenosine A1 receptor = adenosine A1 receptor (Homo sapiens (Human), UniProt P30542); experiment: Indirect determination of adenosine agonism by gene expression (luciferase reporter), A1 cells; type: cell-based; settings: CHO cells stably transfected with adenosine A1 receptor; 1 μM forskolin; 50% inhibition of luciferase response
Sequence of adenosine A1 receptor (P30542 whole entry): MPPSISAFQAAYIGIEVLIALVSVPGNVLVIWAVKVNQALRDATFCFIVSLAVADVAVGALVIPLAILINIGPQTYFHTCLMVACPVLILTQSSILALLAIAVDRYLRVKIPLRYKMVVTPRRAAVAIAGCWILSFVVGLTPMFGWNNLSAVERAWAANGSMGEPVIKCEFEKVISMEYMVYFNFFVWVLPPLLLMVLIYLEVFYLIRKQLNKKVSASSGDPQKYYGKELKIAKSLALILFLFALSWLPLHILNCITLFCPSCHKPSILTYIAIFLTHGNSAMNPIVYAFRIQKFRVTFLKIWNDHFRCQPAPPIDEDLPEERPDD
From the text: as §1, §2, §3, §4

adenosine A2b receptor = adenosine A2b receptor (Homo sapiens (Human), UniProt P29275); experiment: Indirect determination of adenosine agonism by gene expression (luciferase reporter), A2b cells; type: cell-based; settings: CHO cells stably transfected with adenosine A2b receptor, 50% of maximum stimulation
Sequence of adenosine A2b receptor (P29275 whole entry): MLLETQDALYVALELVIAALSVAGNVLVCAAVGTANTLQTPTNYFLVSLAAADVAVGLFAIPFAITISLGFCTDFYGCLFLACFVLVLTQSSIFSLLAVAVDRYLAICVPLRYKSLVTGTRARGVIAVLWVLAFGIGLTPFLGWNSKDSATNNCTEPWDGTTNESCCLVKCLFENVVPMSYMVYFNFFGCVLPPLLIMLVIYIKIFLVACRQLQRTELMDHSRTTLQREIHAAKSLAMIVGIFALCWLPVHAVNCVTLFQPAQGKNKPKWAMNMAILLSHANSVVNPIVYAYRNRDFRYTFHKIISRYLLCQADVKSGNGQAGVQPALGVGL
From the text: as §1, §2, §3, §4

[2] = PEG 400/water solution (30:70 v/v), aqueous with cosolvent or surfactant or cyclodextrin, PEG 400/water (30:70 v/v), 20° C., read-out: Solubility [mg/liter] PEG/water solution (30:70 v/v)
[3] = aqueous buffer, PBS buffer pH 6.5, 20° C., read-out: Solubility [mg/liter] PBS buffer

Structure (SMILES)	solubility at 24 h [1, 2] [mg/L]	GTP Shift (A1 receptor)	EC50 (adenosine A2a receptor) [nM]	EC50 (adenosine A1 receptor) [nM]	EC50 (adenosine A2b receptor) [nM]	solubility at 24 h [1, 3] [mg/L]
COCCOc1ccc(-c2c(C#N)c(N)nc(SC(C)c3cccc(C(N)=O)c3)c2C#N)cc1 (single isomer, unassigned) [Example 64, 3-[1-({6-Amino-3,5-dicyano-4-[4-(2-methoxyethoxy)phenyl]pyridin-2-yl}sulfanyl)ethyl]benzenecarboxamide]	260 (≈ 549 µM)	2.8	–	–	–	–
N#Cc1c(NC[C@@H](O)CO)nc(SCc2cccc(C(N)=O)c2)c(C#N)c1-c1ccccc1 [Example 99, 3-{[(3,5-Dicyano-6-{[(2R)-2,3-dihydroxypropyl]amino}-4-phenylpyridin-2-yl)sulfanyl]methyl}-benzenecarboxamide]	440 (≈ 957 µM)	–	–	0.9	–	9 (≈ 19.6 µM)
CNC(=O)c1cc(CSc2ncc(C#N)c(-c3ccc(OC)cc3)c2C#N)ccn1 [Example 31]	–	–	707	1.6	708	–
N#Cc1c(N)nc(OCc2ccnc(C(=O)NC3CC3)c2)c(C#N)c1-c1ccccc1 [Example 68]	–	–	1740	0.4	440	–
CNC(=O)c1cccc(C(C)Sc2nc(N)c(C#N)c(-c3ccc(OCCO)cc3)c2C#N)c1 (racemic) [Example 62, rac-3-[1-({6-Amino-3,5-dicyano-4-[4-(2-hydroxyethoxy)phenyl]pyridin-2-yl}sulfanyl)ethyl]-N-methylbenzenecarboxamide]	–	–	≥ 3000	0.3	262	–
CNC(=O)c1cc(CSc2nc(NC[C@H](O)CO)c(C#N)c(-c3ccccc3)c2C#N)ccn1 [Example 83]	–	–	2180	0.2	593	–
CNC(=O)c1cc(CSc2ncc(C#N)c(-c3ccc(OCCO)cc3)c2C#N)ccn1 [Example 30]	–	–	1110	0.4	122	–
CC(Sc1nc(N)c(C#N)c(-c2ccc(OCCO)cc2)c1C#N)c1cccc(C(N)=O)c1 (racemic) [Example 60, rac-3-[1-({6-Amino-3,5-dicyano-4-[4-(2-hydroxyethoxy)phenyl]pyridin-2-yl}sulfanyl)ethyl]-benzenecarboxamide]	–	–	≥ 3000	0.4	1440	–

The next lines start with results.

solubility at 24 h [1, 2] [mg/L]	GTP Shift (A1 receptor)	EC50 (adenosine A2a receptor) [nM]	EC50 (adenosine A1 receptor) [nM]	EC50 (adenosine A2b receptor) [nM]	Structure (SMILES)	solubility at 24 h [1, 3] [mg/L]
90 (≈ 196 µM)	1.5	–	–	–	CC(Sc1nc(N)c(C#N)c(-c2ccc(OCCO)cc2)c1C#N)c1cccc(C(N)=O)c1 (single isomer, unassigned) [Example 61, 3-[1-({6-Amino-3,5-dicyano-4-[4-(2-hydroxyethoxy)phenyl]pyridin-2-yl}sulfanyl)ethyl]benzenecarboxamide]	–
210 (≈ 492 µM)	–	108	0.08	46	N#Cc1c(N)nc(SCc2ccnc(C(=O)NC3CC3)c2)c(C#N)c1-c1ccccc1 [Example 13]	–
53 (≈ 138 µM)	–	117	0.3	3.9	N#Cc1c(N)nc(SCc2cccc(C(N)=O)c2)c(C#N)c1-c1ccccc1 [Example 33]	5 (≈ 13 µM)
–	–	≥ 3000	2.8	≥ 3000	CNC(=O)c1cc(C(C)Sc2nc(N)c(C#N)c(-c3ccc(OCC(F)(F)F)cc3)c2C#N)ccn1 (racemic) [Example 56, rac-4-[1-({6-Amino-3,5-dicyano-4-[4-(2,2,2-trifluoroethoxy)phenyl]pyridin-2-yl}sulfanyl)ethyl]-N-methylpyridine-2-carboxamide]	–
